The record followed here is patent publication US20010012854A1, “MULTICATALYTIC PROTEASE INHIBITORS FOR USE AS ANTI-TUMOR AGENTS” (priority 1997, published 2001).

For assay [1], the system named is Jurkat Human T Cell Leukemia Line. Kind of assay: Jurkat cell viability assay (XTT reduction). As to conditions: Jurkat cells, 24 hours, viability by XTT reduction, read-out: Toxicity (IC50). It counts as cell-based. On the procedure: f. Cell viability assay. Jurkat cells were treated with MCP inhibitors or vehicle for 30 min. at 37° C. Next, ionomycin (1 μM) and the phorbol ester PMA (10 ng/ml) were added, together with 0.2% ethanol. After 24 h, cell viability was assessed by reduction of XTT (Sigma, X4251). To each well, 50 μl of XTT (1 mg/ml) and 25 μl PMS (Sigma 9625, 5 mM) were added. After 3 h at 37° C., the OD of each well was read at 450 nm/690 nm by a plate reader.
The rank-order potency for Jurkat cell killing precisely matched the order for MCP inhibition (Table 2, below).
In general terms: Formazan colour is commonly taken as a measure of viable cells.

In assay [2] the test system is Bcl-2-overexpressing Jurkat cells. Kind of assay: Apoptosis in Bcl-2-overexpressing Jurkat cells (nuclear staining, western blot). Format: cell-based, human. On the procedure: b. Cell culture. Human Jurkat T and HL-60 cells were grown in RPMI 1640 (Life Technologies, Inc.) supplemented with 10% fetal calf serum (Sigma), 100 units/ml of penicillin, 100 μg/ml of streptomycin and 2mM L-glutamine (growth medium). Jurkat T. cells overexpressing the Bcl-2 oncoprotein or vector alone (provided by Dr. D. Johnson, University of Pittsburgh, Pa.) were grown in the same growth medium with […] G418. Human cancer cell lines of breast (MCF-7, MDA-MB-231), prostate (DU145, PC3) and osteosarcoma (U2-OS), obtained from American Type Culture Collection (ATCC. Rockville, Md.)), were also grown in the RPMI growth medium. Human oral (SCC-25; from ATCC) and brain (SNB-19; Welch, W. C., et al. In Vitro Cell. Dev. Biol., 31:610-616, 1995) cancer cell lines, and normal (WI-38) and SV40-transformed human fibroblasts (WI-38 VA-13; from ATCC) were grown in DMEM medium containing 10% fetal calf serum, penicillin, streptomycin and L-glutamine.
(§1) d. Flow cytometry nuclear staining and DNA fragmentation assays. DNA content analysis using flow cytometry was performed as described previously (Nicoletti, I., et al. J. Immunol. Methods 139:271-279, 1992). To assay nuclear morphology, cells were washed with PBS, fixed with 70% ethanol for 1 h, and stained with Hoechst 33258 (1 mM) for 30 min. The nuclear morphology of cells was visualized by fluorescence microscope (OLYMPUS BH2). DNA fragmentation was assayed as described previously (Grant, S., et al. Cancer Res. 52:6270-6278, 1992).
(§2) e. Whole cell extracts and western blot assay. To prepare whole cell extracts, cells were washed with PBS, and homogenized in lysis buffer (50 mM Tris, pH 8.0, 5 mM EDTA, 150 mM NaCl, 0.5% Nonidet P-40, 0.5 mM PMSF and 0.5 mM dithiothreitol). Following 30 min rocking at 4° C., the lysates were centrifuged and the supernatants were collected as whole cell extracts. The protein samples were then analyzed by sodium dodecyl sulfate-6% polyacrylamide gel electrophoresis (20-60 μg protein per lane) followed by the enhanced chemiluminescence Western blot assay using specific antibodies to CPP32, PARP, p21, p27 or RB.
It has been shown that overexpression of Bcl-2 oncoprotein inhibits apoptosis in many cell systems (Miura, M., et al., J. Cell 75: 653-660, 1993). Bcl-2 expression in human Jurkat T cells for inhibition of Compound A-induced apoptosis was investigated.
In general terms: Immunoblotting shows a protein as a band on a membrane.

Assay [3] concerns human breast cancer MDA-MB-231 cells. Kind of assay: Detachment and apoptotic nuclear changes in MDA-MB-231 cells. It counts as cell-based. As to conditions: MDA-MB-231, 24 h. On the procedure:
(§3) c. Treatment of cells with MCP inhibitor. Cells were treated with a specified MCP Inhibitor, a standard anticancer agent (etoposide or cisplatin), or DMSO (vehicle). During this process, morphological changes and cellular detachment (for attached cell lines) were monitored. At each time point, cells were harvested, and used for measurement of apoptosis and other biochemical events. In Example 1, infra, involving YVAD-CMK, Compound A was first added to Jurkat T cells. This was followed immediately by dividing the cells into multiple tissue culture flasks. YVAD-CMK was then added to an indicated concentration.
as §1
(§4) Detachment was also found in at least half of human breast cancer MDA-MB-231 and MCF-7 cells, after exposure to Compound A for 24 h.

The subject of assay [4] is human breast cancer MCF-7 cells. Kind of assay: Detachment and apoptotic nuclear changes in MCF-7 cells. It counts as cell-based. As to conditions: MCF-7, 24 h. On the procedure:
as §3, §1, §4

Assay [5] deals with glioblastoma cell line SNB-19. In words: Detachment and apoptosis in SNB-19 cells. It counts as cell-based, human. On the procedure:
as §3, §1

Assay [6] concerns SV40-transformed human fibroblasts (WI-38 VA13). Kind of assay: Detachment, apoptotic nuclear changes and PARP cleavage in SV40-transformed fibroblasts. Format: cell-based. On the procedure: as §3, §1, §2
Whether Compound A has, any selectivity in induction of apoptosis between transformed and normal cells was investigated. Normal human fibroblast cell line (WI-38) and its SV40-transformed derivative (WI-38 VA13) were utilized. […]

Assay [7] concerns p21 and p27 in human breast cancer MDA-MB-231 cells. Kind of assay: Western blot of p21 and p27 levels in MDA-MB-231 cells. It counts as cell-based. As to conditions: MDA-MB-231, 15 μM, 6 hours. On the procedure:
as §2
Additionally, a band of 70 kDa whih may represent ubiquinated p70 was also observed. In contrast, etoposide caused only limited accumulation of p21 (≦4-fold) and p27 (≦2-fold) at 17 hours when used at concentrations up to 100 μM.

Assay [8] has as its system p21 and p27 in normal WI-38 fibroblasts. Kind of assay: Western blot of p21 and p27 levels in normal WI-38 fibroblasts. Format: cell-based, human. As to conditions: normal WI-38, 10 μM, 22 hours. On the procedure:
as §2
(§5) The accumulation of p21 and p27 following treatment with Compound A was also evaluated in SV-40 transformed and normal WI-38 fibroblasts.

Assay [9] relates to p21 and p27 in SV-40 transformed WI-38 fibroblasts. Kind of assay: Western blot of p21 and p27 levels in SV-40 transformed WI-38 fibroblasts. Format: cell-based, human. As to conditions: SV-40 transformed WI-38, 10 μM, 22 hours. On the procedure:
as §2, §5

For the compound `CC(C)C[C@@H](C=O)NC(=O)[C@@H](CCCNC(=N)N[N+](=O)[O-])NC(=O)C(CCCCCCCCN1C(=O)c2ccccc2C1=O)C1CCCC1` (stereo partly drawn) [Compound A], the IC50 (usually the concentration at which inhibition is half-maximal) in [1] is 500 nM. In assay [2] (15 μM), the “Effect of Bcl-2 overexpression on induced PARP cleavage and p112-115/RB production” value was “failed to block cleavage of PARP and production of p112-115/RB”. For the same compound, in assay [2] (15 μM, 8 h), the “Effect of Bcl-2 expression on induced apoptotic nuclear changes” value is “did not inhibit the apoptotic nuclear changes”. For the same compound, in assay [2] (Bcl-2-overexpressing Jurkat, 30 μM, 3.5 h), the “Cells exhibiting apoptosis-specific nuclear morphology” value was roughly 100%. Besides, in [3], the “Apoptosis by nuclear staining” value is “apoptotic morphology in all of the detached and most of the attached cells”; the Detached cells entry was “at least half”. In assay [4], the “Apoptosis by nuclear staining” value is “apoptotic morphology in all of the detached and most of the attached cells”; the Detached cells result is reported as “at least half”. Moreover, the “Induction of cellular detachment and apoptosis” value in assay [5] is “induced cellular detachment and apoptosis”. In addition, the PARP cleavage result in assay [6] (SV40-transformed WI-38, total cell population) was “observed only in the transformed”. Moreover, in [6] (WI-38 VA13, 10 μM, up to 22 h), the “Detachment and apoptotic nuclear changes” value was “induced a detachment in the majority of SV40-transformed cells”. Also, in [7], the “Increase in level of p21” value is listed as 45 fold and the “Levels of p27” value is recorded as “slightly increased”. Also, the p27 levels entry in assay [8] was “increased only slightly”. In [9], the “Elevation of p27 levels” value was determined as 8 fold.
